Among the data in US6376488B1, “Benzoxazine α-1 adrenergic compounds” (Abbott Laboratories, priority 2000, dated 2002) are Ki values, retold here.

This assay deals with T1, α1b (Hamster) adrenoreceptor (Mesocricetus auratus, UniProt P18841).
T1 sequence (P18841 1-515): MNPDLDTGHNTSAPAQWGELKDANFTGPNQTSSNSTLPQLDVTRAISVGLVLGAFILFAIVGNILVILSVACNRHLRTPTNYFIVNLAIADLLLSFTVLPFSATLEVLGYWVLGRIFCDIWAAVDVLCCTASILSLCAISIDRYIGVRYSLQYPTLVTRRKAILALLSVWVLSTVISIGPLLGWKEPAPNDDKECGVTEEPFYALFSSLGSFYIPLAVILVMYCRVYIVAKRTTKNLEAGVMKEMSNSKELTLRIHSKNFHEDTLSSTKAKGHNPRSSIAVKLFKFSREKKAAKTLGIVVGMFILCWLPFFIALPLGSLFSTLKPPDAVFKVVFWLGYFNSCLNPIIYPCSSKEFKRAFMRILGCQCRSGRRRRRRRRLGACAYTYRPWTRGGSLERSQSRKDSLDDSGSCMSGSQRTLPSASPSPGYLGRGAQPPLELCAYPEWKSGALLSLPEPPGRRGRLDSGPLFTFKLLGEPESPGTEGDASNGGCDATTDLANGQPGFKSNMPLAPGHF
Description: [3H]-prazosin radioligand binding, cloned α1b (hamster) adrenoreceptor in LTK cells. Particulars: cloned receptor in LTK cell membranes, [3H]prazosin 0.2 nM. The source says: The cDNA clones encoding the α1, adrenoreceptors were obtained from TULCO (Triangle Universities Licensing Consortium, Research Triangle Park, N.C.) and inserted into the eukaryotic expression vector SnaB30. In this vector, expression of the adrenoreceptor gene is under the transcriptional control of an SV40 early promoter. Positive drug selection is provided by a neomycin-resistance gene. Mouse fibroblast cells (LTK) were transfected with the α1 expression plasmids and grown in Dulbecco's modified Eagle's medium (DMEM) containing 10% fetal calf serum and 30 μM G418. […] Stable single cell clones derived from the parental lines were screened in adrenoreceptor binding assays to identify clones having high adrenoreceptor density. Roller bottle cultures of the cloned lines were used to provide cell membranes for subsequent adrenoreceptor binding characterization studies. A cell line containing the SnaB30 vector expressing the human erythropoietin gene served as a negative control.
For adrenoreceptor binding assays, large scale membrane preparations were utilized in which 6 million cells were seeded into small (450 cm^2) Coming tissue culture roller bottles. DMEM (200 mL) containing 10% fetal calf serum and 300 μM G418 were added to each roller bottle. A 95% air/5% CO2 gas mixture (sterile) was injected into each roller bottle prior to sealing, and the bottles were then incubated at 37° C. on a roller rack for 5 days. Cells were refed with fresh medium after 3 days in culture.
On the fifth day of culture, growth medium was removed from cells grown in roller bottles, and the cells were washed twice with PBS (Sigma, 120 mM NaCl, 2.7 mM KCl, 10 mM Na2HPO4-NaH2PO4, pH=7.4). Cells were detached from the roller bottles by incubating for 15 minutes at 37° C. in a Tris-EDTA solution (10 mM Tris, 100 mM NaCl, 1 mM EDTA, pH=7.4). The cell suspension from each roller bottle was decanted into tared centrifuge tubes and kept on ice. An aliquot of each cell suspension was generally taken for cell counting. Cells were centrifuged at 3000×G for 5 minutes at 2-4° C., washed with PBS and recentrifuged. The supernatant was decanted, and the pellet was weighed to determine the wet weight of cells. Cells were washed a final time in 40 vol 5 mM Tris-HCl, 5 mM EDTA, pH=7.7 and centrifuged at 40,000×G for 10 minutes (“vol” indicates volume/weight, e.g., a “vol” of 40 would indicate that the one gram of cells were washed with 40 mls of buffer). Cells were homogenized in of 50 mM Tris-HCl, 5 mM EDTA (pH=7.4) (10 mL) and diluted to 40 mL/tube. Homogenates were centrifuged at 40,000×G for 10 minutes. The supernatant was decanted and the pellets rehomogenized in 50 mM Tris-HCl (pH=7.4) and centrifuged as before.
Following equilibration, bound radioligand was separated from free on GF/B filters (presoaked in 0.5% polyethyleneimine) using ither a Brandel or Packard cell harvester. Radioactivity was determined by standard liquid scintillation techniques.

Structures can show the parent of a compound that is named as a salt.

`COc1cccc2c1N1CCN(CCCCn3c(=O)[nH]c4c(sc5cccnc54)c3=O)CC1CO2` (single isomer, unassigned; (+)) [Example 14, (+) 3-[4-(10-methoxy-1,2,4a,5-tetrahydropyrazino[2,1-c][1,4]benzoxazin-3(4H)-yl)butyl]pyido [2′,3′:4,5]thieno[3,2-d]pyrimidine-2,4(1H,3H)-dione trihydrochloride] came in with a Ki of 8.32 nM.

For the compound `Cl.Cl.O=c1[nH]c2c(sc3ncccc32)c(=O)n1CCCCN1CCN2c3ccccc3OCC2C1` (single isomer, unassigned; (-)) [Example 6, (−) 3-[4-(1,2,4a,5-tetrahydropyrazino[2,1-c][1,4]benzoxazin-3(4H)-yl)butyl]pyrido[3′, 2′:4,5]thieno[3,2-d]pyrimidine-2,4(1H,3H)-dione dihydrochloride], the Ki came to 27.3 nM. Against the preceding compound, the Ki is about 3.3-fold higher.

Compound `COc1cccc2c1N1CCN(CCCn3c(=O)[nH]c4c(sc5cccnc54)c3=O)CC1CO2.Cl.Cl.Cl` (single isomer, unassigned; (+)) [Example 17, (+) 3-[3-(10-methoxy-1,2,4a,5-tetrahydropyrazino[2,1-c][1,4]benzoxazin-3(4H)-yl)propyl]pyrido[2′,3′:4,5]thieno[3,2-d]pyrimidine-2,4(1H,3H)-dione trihydrochloride] returned a Ki of 40.4 nM.

Turning to `COc1cccc2c1N1CCN(CCn3c(=O)[nH]c4c(sc5cccnc54)c3=O)CC1CO2.Cl.Cl` (single isomer, unassigned; (-)) [Example 7, (−) 3-[2-(10methoxy-1,2,4a,5-tetrahydropyrazino[2,1-c][1,4]benzoxazin-3(4H)-yl)ethyl]pyrido[2′,3′:4,5]thieno[3,2-d]pyrimidine-2,4(1H,3H)-dione dihydrochloride], the Ki was 6.89 nM.

As for `COc1cccc2c1N1CCN(CCCCn3c(=O)[nH]c4c(sc5ncccc54)c3=O)CC1CO2.Cl.Cl.Cl` (single isomer, unassigned; (+)) [Example 15, (+) 3-[4-(10-methoxy-1,2,4a,5-tetrahydropyrazino[2,1-c][1,4]benzoxazin-3(4H)-yl)butyl]pyrido[3′,2′:4,5]thieno[3,2-d]pyrimidine-2,4(1H,3H)-dione trihydrochloride], the Ki was determined as 13.8 nM.

`COc1cccc2c1N1CCN(CCCCn3c(=O)[nH]c4c(sc5ncccc54)c3=O)CC1CO2` (single isomer, unassigned; (-)) [Example 11, (−) 3-[4-(10-methoxy-1,2,4a,5-tetrahydropyrazino[2,1-c][1,4]benzoxazin-3(4H)-yl)butyl]pyrido[3′,2′:4.5]thieno[3,2-d]pyrimidine-2,4(1H,3H)-dione trihydrochloride]: the Ki is 2.71 nM.

In turn, “(−) 3-[3-(10-methoxy-1,2,4a,5-tetrahydropyrazino[2,1-c][1,4]benzoxazin-3(4H)-yl)butyl]pyrido[2′,3′:4,5]thieno[3,2-d]pyrimidine-2,4(1H,3H)-dione trihydrochloride [Example 10]” yielded a Ki of 1.81 nM.

Turning to `COc1cccc2c1N1CCN(CCCn3c(=O)[nH]c4c(sc5cccnc54)c3=O)CC1CO2.Cl.Cl.Cl` (single isomer, unassigned; (-)) [Example 9, (−) 3-[3-(10-methoxy-1,2,4a,5-tetrahydropyrazino[2,1-c][1,4]benzoxazin-3(4H)-yl)propyl]pyrido[2′,3′:4,5]thieno[3,2-d]pyrimidine-2,4(1H, 3H)-dione trihydrochloride], the affinity corresponds to a Ki of 3.86 nM.

`COc1cccc2c1N1CCN(CCn3c(=O)[nH]c4c(sc5ncc(Cl)nc54)c3=O)CC1CO2.Cl.Cl` (single isomer, unassigned; (+)) [Example 8, (+) 3-[2-(10-methoxy-1,2,4a,5-tetrahydropyrazino[2,1-c][1,4]benzoxazin-3(4H)-yl)ethyl]-8-chloropyrazino[2′,3′:4,5]thieno[3,2-d]pyrimidine-2,4(1H,3H)-dione dihydrochloride] registered a Ki of 58.1 nM. This Ki is about 15-fold higher than that of the compound before.

`Cl.Cl.O=c1[nH]c2c(sc3ncccc32)c(=O)n1CCCCN1CCN2c3ccccc3OCC2C1` (single isomer, unassigned; (+)) [Example 5, (+) 3-[4-(1,2,4a,5-tetrahydropyrazino[2,1-c][1,4]benzoxazin-3(4H)-yl)butyl]pyrido[3′, 2′:4,5]thieno[3,2-d]pyrimidine-2,4(1H,3H)-dione dihydrochloride] displayed a Ki of 40.6 nM.

In turn, `Cl.Cl.O=c1[nH]c2c(sc3cccnc32)c(=O)n1CCCN1CCN2c3ccccc3OCC2C1` (single isomer, unassigned; (+)) [Example 1, (+) 3-[3-(1,2,4a,5-tetrahydropyrazino[2,1-c][1,4]benzoxazin-3(4H)-yl)propyl]pyrido[2′,3′:4,5]thieno[3,2-d]pyrimidine-2,4(1H,3H)-dione dihydrochloride] displayed a Ki of 14.3 nM.

With `O=c1[nH]c2c(sc3cccnc32)c(=O)n1CCCCN1CCN2c3ccccc3OCC2C1` (single isomer, unassigned; (-)) [Example 4, (−) 3-[4-(1.2,4a,5-tetrahydropyrazino[2,1-c][1,4benzoxazin-3(4H)-yl)butyl]pyrido[2′,3′:4,5]thieno[3,2-d]pyrimidine-2,4(1H,3H)-dione dihydrochloride], the inhibition constant (Ki) is 26.5 nM.

For the compound `Cl.Cl.O=c1[nH]c2c(sc3cccnc32)c(=O)n1CCCCN1CCN2c3ccccc3OCC2C1` (single isomer, unassigned; (+)) [Example 3, (+) 3-[4-(1,2,4a,5-tetrahydropyrazino[2,1-c][1,4]benzoxazin-3(4H)-yl)butyl]pyrido[2′, 3′:4,5]thieno[3,2-d]pyrimidine-2,4(1H,3H)-dione dihydrochloride], affinity was put at a Ki of 32.4 nM. The Ki values of the last two compounds are within 1.5-fold of each other.

In the case of `COc1cccc2c1N1CCN(CCCCn3c(=O)[nH]c4c(sc5ncc(Cl)nc54)c3=O)CC1CO2.Cl.Cl` (single isomer, unassigned; (-)) [Example 12, (−) 3-[4-(10-methoxy-1,2,4a,5-tetrahydropyrazino[2,1-c][1,4]benzoxazin-3(4H)-yl)butyl]-8-chloropyrazino[2′,3′:4,5]thieno[3,2-d]pyrimidine-2,4(1H,3H)-dione dihydrochloride], the inhibition constant Ki came out at 8.91 nM.

In the case of `COc1cccc2c1N1CCN(CCn3c(=O)[nH]c4c(sc5ncc(Cl)nc54)c3=O)CC1CO2.Cl.Cl` (single isomer, unassigned; (-)) [Example 13, (−) 3-[2-(10-methoxy-1,2,4a,5-tetrahydropyrazino[2,1-c][1,4]benzoxazin-3(4H)-yl)ethyl]-8-chloropyrazino[2′,3′:4,5]thieno[3,2-d]pyrimidine-2,4(1H,3H)-dione dihydrochloride], the affinity, expressed as Ki, was 39.1 nM.

For the compound `COc1cccc2c1N1CCN(CCn3c(=O)[nH]c4c(sc5cccnc54)c3=O)CC1CO2.Cl.Cl.Cl` (single isomer, unassigned; (+)) [Example 16, (+) 3-[2-(10-methoxy-1,2,4a,5-tetrahydropyrazino[2,1-c][1,4]benzoxazin-3(4H)-yl)ethyl]pyrido[2′,3′:4,5]thieno[3,2-d]pyrimidine-2,4(1H,3H)-dione trihydrochloride], the Ki came out at 11.8 nM. This Ki lies about 3.3-fold lower than the previous one.

For `O=c1[nH]c2c(sc3cccnc32)c(=O)n1CCCN1CCN2c3ccccc3OCC2C1` (single isomer, unassigned; (-)) [Example 2, (−) 3-[3-(1,2,4a,5-tetrahydropyrazino[2,1-c][1,4]benzoxazin-3(4H)-yl)propyl]pyrido[2′,3′:4,5]thieno[3,2-d]pyrimidine-2,4(1H,3H)-dione dihydrochloride], the Ki was determined as 24.6 nM.

One may read the Ki as the dissociation constant of the complex between target and ligand, obtained from inhibition or displacement. A lower Ki goes with tighter binding.
